{
  "source": "patent US12091405B2",
  "about": "“Substituted pyrazole compounds as indoleamine 2,3-dioxygenase inhibitors” (Merck Sharp & Dohme LLC, priority 2018, dated 2024)",
  "data": [
    {"molecular_target": "IDO1 (Homo sapiens, UniProt P14902)", "sequence (P14902 whole entry)": "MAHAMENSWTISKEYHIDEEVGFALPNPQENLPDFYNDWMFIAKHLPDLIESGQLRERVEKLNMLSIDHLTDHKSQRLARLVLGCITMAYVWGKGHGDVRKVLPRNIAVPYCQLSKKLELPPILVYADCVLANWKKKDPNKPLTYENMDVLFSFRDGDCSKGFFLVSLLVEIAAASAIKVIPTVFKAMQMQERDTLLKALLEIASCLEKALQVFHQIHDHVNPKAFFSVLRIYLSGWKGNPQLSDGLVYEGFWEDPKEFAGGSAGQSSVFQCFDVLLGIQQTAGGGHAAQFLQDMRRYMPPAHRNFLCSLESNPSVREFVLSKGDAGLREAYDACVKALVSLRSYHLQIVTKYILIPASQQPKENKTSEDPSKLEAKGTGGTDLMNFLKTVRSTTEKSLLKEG", "assay": "IDO1 Cellular Assay in HeLa Cells Stimulated with IFNγ", "type": "cell-based", "settings": "IFNγ 100 ng/mL, 300 uM L-tryptophan, about 48 hours, fluorescence readout, read-out: IDO1 HELA Cell Assay, IC50", "units": {"IC50": "nM"}, "values": [
      {"smiles": "C[C@@H]1CN(C(=O)c2nn(CC(=O)N3CCC(c4ccc(F)cc4Cl)CC3)c3c2CCC3)C[C@H](C)O1", "note": "[Example 124, 1-[4-(2-chloro-4-fluorophenyl)piperidin-1-yl]-2-{3-[(2R,6S)-2,6-dimethylmorpholine-4-carbonyl]-5,6-dihydrocyclopenta[c]pyrazol-1(4H)-yl}ethan-1-one]", "IC50": 57},
      {"smiles": "C[C@@H]1CN(C(=O)c2nn(CC(=O)N3CCC(c4cccc(C5(C)CC5)c4)CC3)c3c2CCC3)C[C@H](C)O1", "note": "[Example 125, 2-{3-[(2R,6S)-2,6-dimethylmorpholine-4-carbonyl]-5,6-dihydrocyclopenta[c]pyrazol-1(4H)-yl}-1-{4-[3-(1-methylcyclopropyl)phenyl]piperidin-1-yl}ethan-1-one]", "IC50": 57.7},
      {"smiles": "C[C@@H]1CN(C(=O)c2nn(CC(=O)N3CCC(c4cc(F)c(F)c(F)c4)CC3)c3c2CCC3)C[C@H](C)O1", "note": "[Example 126, 2-{3-[(2R,6S)-2,6-dimethylmorpholine-4-carbonyl]-5,6-dihydrocyclopenta[c]pyrazol-1(4H)-yl}-1-[4-(3,4,5-trifluorophenyl)piperidin-1-yl]ethan-1-one]", "IC50": 59},
      {"smiles": "Cc1ccc(C2CCN(C(=O)Cn3nc(C(=O)N4C[C@@H](C)O[C@@H](C)C4)c4c3CCC4)CC2)cc1", "note": "[Example 127, 2-{3-[(2R,6S)-2,6-dimethylmorpholine-4-carbonyl]-5,6-dihydrocyclopenta[c]pyrazol-1(4H)-yl}-1-[4-(4-methylphenyl)piperidin-1-yl]ethan-1-one]", "IC50": 61.1},
      {"smiles": "C[C@@H]1CN(C(=O)c2nn(CC(=O)N3CCC(c4ccc(F)c(F)c4F)CC3)c3c2CCC3)C[C@H](C)O1", "note": "[Example 128, 2-{3-[(2R,6S)-2,6-dimethylmorpholine-4-carbonyl]-5,6-dihydrocyclopenta[c]pyrazol-1(4H)-yl}-1-[4-(2,3,4-trifluorophenyl)piperidin-1-yl]ethan-1-one]", "IC50": 64.1},
      {"smiles": "Cc1c(C#N)cccc1C1CCN(C(=O)Cn2nc(C(=O)N3C[C@@H](C)O[C@@H](C)C3)c3c2CCC3)CC1", "note": "[Example 129, 3-[1-({3-[(2R,6S)-2,6-dimethylmorpholine-4-carbonyl]-5,6-dihydrocyclopenta[c]pyrazol-1(4H)-yl}acetyl)piperidin-4-yl]-2-methylbenzonitrile]", "IC50": 64.1},
      {"smiles": "C[C@@H]1CN(C(=O)c2nn(CC(=O)N3CCC(c4cccc(F)c4)CC3)c3c2CCC3)C[C@H](C)O1", "note": "[Example 130, 2-{3-[(2R,6S)-2,6-dimethylmorpholine-4-carbonyl]-5,6-dihydrocyclopenta[c]pyrazol-1(4H)-yl}-1-[4-(3-fluorophenyl)piperidin-1-yl]ethan-1-one]", "IC50": 66.1},
      {"smiles": "C[C@@H]1CN(C(=O)c2nn(CC(=O)N3CCC(c4ccc(C5CC5)cc4)CC3)c3c2CCC3)C[C@H](C)O1", "note": "[Example 131, 1-[4-(4-cyclopropylphenyl)piperidin-1-yl]-2-{3-[(2R,6S)-2,6-dimethylmorpholine-4-carbonyl]-5,6-dihydrocyclopenta[c]pyrazol-1(4H)-yl}ethan-1-one]", "IC50": 77.9},
      {"smiles": "C[C@@H]1CN(C(=O)c2nn(CC(=O)N3CCC(c4cc(F)c(F)c(F)c4Cl)CC3)c3c2CCC3)C[C@H](C)O1", "note": "[Example 132, 1-[4-(2-chloro-3,4,5-trifluorophenyl)piperidin-1-yl]-2-{3-[(2R,6S)-2,6-dimethylmorpholine-4-carbonyl]-5,6-dihydrocyclopenta[c]pyrazol-1(4H)-yl}ethan-1-one]", "IC50": 80.2},
      {"smiles": "C[C@@H]1CN(C(=O)c2nn(CC(=O)N3CCC(c4ccc(F)c(C(F)F)c4)CC3)c3c2CCC3)C[C@H](C)O1", "note": "[Example 133, 1-{4-[3-(difluoromethyl)-4-fluorophenyl]piperidin-1-yl}-2-{3-[(2R,6S)-2,6-dimethylmorpholine-4-carbonyl]-5,6-dihydrocyclopenta[c]pyrazol-1(4H)-yl}ethan-1-one]", "IC50": 81.7},
      {"smiles": "COc1c(F)cc(C2CCN(C(=O)Cn3nc(C(=O)N4C[C@@H](C)O[C@@H](C)C4)c4c3CCC4)CC2)cc1F", "note": "[Example 134, 1-[4-(3,5-difluoro-4-methoxyphenyl)piperidin-1-yl]-2-{3-[(2R,6S)-2,6-dimethylmorpholine-4-carbonyl]-5,6-dihydrocyclopenta[c]pyrazol-1(4H)-yl}ethan-1-one]", "IC50": 82.1},
      {"smiles": "C[C@@H]1CN(C(=O)c2nn(CC(=O)N3CCC(c4ccc(Cl)cc4F)CC3)c3c2CCC3)C[C@H](C)O1", "note": "[Example 135, 1-[4-(4-chloro-2-fluorophenyl)piperidin-1-yl]-2-{3-[(2R,6S)-2,6-dimethylmorpholine-4-carbonyl]-5,6-dihydrocyclopenta[c]pyrazol-1(4H)-yl}ethan-1-one]", "IC50": 83.4},
      {"smiles": "Cc1cc(C)c(C2CCN(C(=O)Cn3nc(C(=O)N4C[C@@H](C)O[C@@H](C)C4)c4c3CCC4)CC2)cc1C", "note": "[Example 136, 2-{3-[(2R,6S)-2,6-dimethylmorpholine-4-carbonyl]-5,6-dihydrocyclopenta[c]pyrazol-1(4H)-yl}-1-[4-(2,4,5-trimethylphenyl)piperidin-1-yl]ethan-1-one]", "IC50": 85},
      {"smiles": "COc1ccc(C2CCN(C(=O)Cn3nc(C(=O)N4C[C@@H](C)O[C@@H](C)C4)c4c3CCC4)CC2)c(F)c1", "note": "[Example 137, 2-{3-[(2R,6S)-2,6-dimethylmorpholine-4-carbonyl]-5,6-dihydrocyclopenta[c]pyrazol-1(4H)-yl}-1-[4-(2-fluoro-4-methoxyphenyl)piperidin-1-yl] ethan-1-one]", "IC50": 85},
      {"smiles": "COc1ccc(C2CCN(C(=O)Cn3nc(C(=O)N4C[C@@H](C)O[C@@H](C)C4)c4c3CCC4)CC2)c(C)c1C", "note": "[Example 138, 2-{3-[(2R,6S)-2,6-dimethylmorpholine-4-carbonyl]-5,6-dihydrocyclopenta[c]pyrazol-1(4H)-yl}-1-[4-(4-methoxy-2,3-dimethylphenyl)piperidin-1-yl]ethan-1-one]", "IC50": 87.6},
      {"smiles": "Cc1cc(C2CCN(C(=O)Cn3nc(C(=O)N4C[C@@H](C)O[C@@H](C)C4)c4c3CCC4)CC2)cc(C)c1F", "note": "[Example 139, 2-{3-[(2R,6S)-2,6-dimethylmorpholine-4-carbonyl]-5,6-dihydrocyclopenta[c]pyrazol-1(4H)-yl}-1-[4-(4-fluoro-3,5-dimethylphenyl)piperidin-1-yl] ethan-1-one]", "IC50": 88.3},
      {"smiles": "C[C@@H]1CN(C(=O)c2nn(CC(=O)N3CCC(c4ccc(C(F)F)c(F)c4)CC3)c3c2CCC3)C[C@H](C)O1", "note": "[Example 140, 1-{4-[4-(difluoromethyl)-3-fluorophenyl]piperidin-1-yl}-2-{3-[(2R,6S)-2,6-dimethylmorpholine-4-carbonyl]-5,6-dihydrocyclopenta[c]pyrazol-1(4H)-yl}ethan-1-one]", "IC50": 89},
      {"smiles": "C[C@@H]1CN(C(=O)c2nn(CC(=O)N3CCC(c4cc(F)cc(C(F)(F)F)c4)CC3)c3c2CCC3)C[C@H](C)O1", "note": "[Example 141, 2-{3-[(2R,6S)-2,6-dimethylmorpholine-4-carbonyl]-5,6-dihydrocyclopenta[c]pyrazol-1(4H)-yl}-1-{4-[3-fluoro-5-(trifluoromethyl)phenyl]piperidin-1-yl}ethan-1-one]", "IC50": 97.4},
      {"smiles": "C[C@@H]1CN(C(=O)c2nn(CC(=O)N3CCC(c4ccc(C(F)F)cc4F)CC3)c3c2CCC3)C[C@H](C)O1", "note": "[Example 142, 1-{4-[4-(difluoromethyl)-2-fluorophenyl]piperidin-1-yl}-2-{3-[(2R,6S)-2,6-dimethylmorpholine-4-carbonyl]-5,6-dihydrocyclopenta[c]pyrazol-1(4H)-yl}ethan-1-one]", "IC50": 99.5},
      {"smiles": "[2H]c1c([2H])c([2H])c(C2CCN(C(=O)Cn3nc(C(=O)N4C[C@@H](C)O[C@@H](C)C4)c4c3CCC4)CC2)c([2H])c1[2H]", "note": "[Example 143, 2-{3-[(2R,6S)-2,6-dimethylmorpholine-4-carbonyl]-5,6-dihydrocyclopenta[c]pyrazol-1(4H)-yl}-1-[4-(~2~H_5_)phenylpiperidin-1-yl]ethan-1-one]", "IC50": 102},
      {"smiles": "C[C@@H]1CN(C(=O)c2nn(CC(=O)N3CCC(c4ccc(F)c(F)c4)CC3)c3c2CCC3)C[C@H](C)O1", "note": "[Example 144, 1-[4-(3,4-difluorophenyl)piperidin-1-yl]-2-{3-[(2R,6S)-2,6-dimethylmorpholine-4-carbonyl]-5,6-dihydrocyclopenta[c]pyrazol-1(4H)-yl}ethan-1-one]", "IC50": 104},
      {"smiles": "C[C@@H]1CN(C(=O)c2nn(CC(=O)N3CCC(c4ccccc4F)CC3)c3c2CCC3)C[C@H](C)O1", "note": "[Example 145, 2-{3-[(2R,6S)-2,6-dimethylmorpholine-4-carbonyl]-5,6-dihydrocyclopenta[c]pyrazol-1(4H)-yl}-1-[4-(2-fluorophenyl)piperidin-1-yl]ethan-1-one]", "IC50": 106},
      {"smiles": "CCc1ccc(C2CCN(C(=O)Cn3nc(C(=O)N4C[C@@H](C)O[C@@H](C)C4)c4c3CCC4)CC2)cc1", "note": "[Example 146, 2-{3-[(2R,6S)-2,6-dimethylmorpholine-4-carbonyl]-5,6-dihydrocyclopenta[c]pyrazol-1(4H)-yl}-1-[4-(4-ethylphenyl)piperidin-1-yl]ethan-1-one]", "IC50": 107},
      {"smiles": "C[C@@H]1CN(C(=O)c2nn(CC(=O)N3CCC(c4ccc(C(F)(F)F)cc4F)CC3)c3c2CCC3)C[C@H](C)O1", "note": "[Example 147, 2-{3-[(2R,6S)-2,6-dimethylmorpholine-4-carbonyl]-5,6-dihydrocyclopenta[c]pyrazol-1(4H)-yl}-1-{4-[2-fluoro-4-(trifluoromethyl)phenyl]piperidin-1-yl}ethan-1-one]", "IC50": 109},
      {"smiles": "Cc1cc(Cl)cc(C2CCN(C(=O)Cn3nc(C(=O)N4C[C@@H](C)O[C@@H](C)C4)c4c3CCC4)CC2)c1", "note": "[Example 148, 1-[4-(3-chloro-5-methylphenyl)piperidin-1-yl]-2-{3-[(2R,6S)-2,6-dimethylmorpholine-4-carbonyl]-5,6-dihydrocyclopenta[c]pyrazol-1(4H)-yl}ethan-1-one]", "IC50": 117},
      {"smiles": "C[C@@H]1CN(C(=O)c2nn(CC(=O)N3CCC(c4cc(F)c(F)cc4F)CC3)c3c2CCC3)C[C@H](C)O1", "note": "[Example 149, 2-{3-[(2R,6S)-2,6-dimethylmorpholine-4-carbonyl]-5,6-dihydrocyclopenta[c]pyrazol-1(4H)-yl}-1-[4-(2,4,5-trifluorophenyl)piperidin-1-yl]ethan-1-one]", "IC50": 120}
    ]}
  ]
}
